Measured values as given in patent US7517857B2, “Immune-modulating peptide” (POSCO, priority 2002, dated 2009).
“Also recorded” adds a separate entry of the source. Where a SMILES comes first, the peptide text is derived from it. Where no end group is shown, it is not given here. [ ]: non-standard residue; d: D form.

Key:
Format in all cases: cell-based
[1] = target: T1, FPR (Homo sapiens, UniProt P21462); test: Exocytosis: β-hexosaminidase secretion in FPR-expressing RBL-2H3 cells; conditions: for granule secretion / β-hexosaminidase release (words): FPR cells, 10 μM of each peptide (WKYMVm also various concentrations)
T1 construct: expressed in transfected cells; host or cells: RBL-2H3 (rat basophilic leukemia) cells, G418-selected
T1 sequence (P21462 1-350): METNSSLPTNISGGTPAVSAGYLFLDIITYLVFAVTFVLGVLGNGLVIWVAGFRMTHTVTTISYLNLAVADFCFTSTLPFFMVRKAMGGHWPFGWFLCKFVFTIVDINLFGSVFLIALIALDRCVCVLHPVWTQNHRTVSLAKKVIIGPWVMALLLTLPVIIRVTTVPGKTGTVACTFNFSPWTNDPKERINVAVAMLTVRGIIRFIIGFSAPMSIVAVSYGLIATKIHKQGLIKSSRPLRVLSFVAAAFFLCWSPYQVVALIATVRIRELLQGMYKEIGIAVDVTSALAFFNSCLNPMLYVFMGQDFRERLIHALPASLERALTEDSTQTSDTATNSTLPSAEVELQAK
Experimental: (§1) Granule secretion is one of the most important function of mast cells (20). The effect of WKYMVm on granule secretion was checked by measuring β-hexosaminidase secretion as described above (18). Briefly, RBL-2H3 cells (2×10^5/well) expressing FPR or FPRL1 were cultured overnight in a 24-well tissue culture plate. The cells were washed twice with Tyrode's buffer (137 mM NaCl, 12 mM NaHCO3, 5.6 mM glucose, 2.7 mM KCl, 1 mM CaCl2, 0.5 mM MgCl2, 0.4 mM NaH2PO4, 0.1g/100 ml BSA, and 25 mM HEPES, pH 7.4) and stimulated with each peptide. Various concentrations of WKYMVm were treated in FPR- or FPRL1-expressing RBL-2H3 cells (FIG. 5A). 1 μM of WKYMVm was used to stimulate two cell lines in the absence or presence of 10 μM BAPTA/AM (FIG. 5B). The reaction was terminated 20 min after stimulation by placing the plate on ice. Secretion of β-hexosaminidase into the medium was determined by incubating 50 μl of supernatant or cell lysate with 25 μl of 5 mM p-nitrophenyl-N-acetyl-β-D-glucosamide in 0.1 M sodium citrate buffer (pH 3.8) at 37° C. for 2 hr. At the end of the incubation, 50 μl of 0.4 M Na2CO3 were added. Absorbance was monitored at 405 nm. Data are means ±S.E. of a single representative of three experiments performed in triplicate. Values (means ±S.E.) were expressed as a percent of total β-hexosaminidase present in the cells.
From the new finding that cytosolic calcium release was induced by WKYMVm and many of the substituted peptides of WKYMVm but not by some of them (WKGMVm (SEQ ID NO: 1), WKRMVm (SEQ ID NO: 11), D-Met^6 substituted peptides), the effect of the peptides on granule secretion in RBL cells was checked. 10 μM of each peptide was treated in FPR- (FIG. 6A) or FPRL1-expressing RBL-2H3 cells (FIG. 6B). The peptide-induced secretion of β-hexosaminidase was determined as above. Data are means ±S.E. of a single representative of three experiments performed in triplicate.

[2] = target: T2, FPRL1 (Homo sapiens, UniProt P25090); test: Exocytosis: β-hexosaminidase secretion in FPRL1-expressing RBL-2H3 cells; conditions: for granule secretion / β-hexosaminidase release (words): FPRL1 cells, 10 μM of each peptide (WKYMVm also various concentrations)
T2 construct: expressed in transfected cells; host or cells: RBL-2H3 (rat basophilic leukemia) cells, G418-selected
T2 sequence (P25090 1-351): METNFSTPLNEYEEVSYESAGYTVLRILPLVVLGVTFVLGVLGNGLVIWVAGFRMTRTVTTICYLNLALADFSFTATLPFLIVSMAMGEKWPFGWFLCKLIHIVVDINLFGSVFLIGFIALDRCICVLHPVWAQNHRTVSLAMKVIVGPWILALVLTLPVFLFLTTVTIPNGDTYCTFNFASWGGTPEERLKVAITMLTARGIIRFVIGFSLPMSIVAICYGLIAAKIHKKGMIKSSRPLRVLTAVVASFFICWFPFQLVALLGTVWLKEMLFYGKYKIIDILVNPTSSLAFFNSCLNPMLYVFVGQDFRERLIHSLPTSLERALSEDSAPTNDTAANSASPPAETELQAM
Experimental: as §1
10 μM of each peptide was treated in FPR- (FIG. 6A) or FPRL1-expressing RBL-2H3 cells (FIG. 6B). The peptide-induced secretion of β-hexosaminidase was determined as above. Data are means ±S.E. of a single representative of three experiments performed in triplicate.

[3] = target: T1, FPR; test: Chemotaxis of FPR-expressing RBL-2H3 cells (modified Boyden chamber); conditions: FPR-expressing RBL-2H3 cells; various concentrations
Experimental: (§2) Chemotaxis assays were performed using multiwell chambers (modified Boyden chamber assay) (Neuroprobe Inc., Gaithersburg, Md.) (18). Briefly, polycarbonate filters (8 μm pore size) were precoated with 50 μg/ml of rat type I collagen (Collaborative Biomedicals) in a HEPES-buffered RPMI 1640 medium. A dry coated filter was placed on a 96-well chamber containing different concentrations of peptides. RBL-2H3 cells expressing FPR or FPRL1 were suspended in RPMI at a concentration of 1×10^6 cells/ml of serum-free RPMI, and 25 μl of the suspension were placed onto the upper well of the 96-well chemotaxis chamber. After incubation for 4 hours at 37° C., non-migrated cells were removed by scraping them out, and cells that migrated across the filter were dehydrated, fixed, and stained with hematoxylin (Sigma, St. Louis, Mo.). The stained cells in five randomly chosen high power fields (HPF) (400×) in that well were then counted. […] The numbers of migrated cells were determined by counting them in a high power field (400×). The Data are presented as means ±SE of three independent experiments each performed in duplicate. The effect of the peptides of the present invention on cellular chemotaxis in FPR- or FPRL1-expressing RBL-2H3 cells was measured. Various concentrations of each peptide were used for the chemotaxis assay with FPR- or FPRL1-expressing RBL-2H3 cells. The numbers of migrated cells were determined by counting them in a high power field (400×). The Data are presented as means ±SE of two independent experiments each performed in duplicates.

[4] = target: T2, FPRL1; test: Chemotaxis of FPRL1-expressing RBL-2H3 cells (modified Boyden chamber); conditions: FPRL1-expressing RBL-2H3 cells; various concentrations
Experimental: as §2

Compound	granule secretion / β-hexosaminidase release (words) [1]	granule secretion / β-hexosaminidase release (words) [2]	cellular chemotaxis [3]	cellular chemotaxis [4]	concentration showing maximal β-hexosaminidase release ([1]; FPR-expressing RBL-2H3 cells)	concentration showing maximal β-hexosaminidase release ([2]; FPRL1-expressing RBL-2H3 cells)	granule secretion / β-hexosaminidase release (words) ([2]; listed as WKYMVm)	granule secretion / β-hexosaminidase release (words) ([2]; listed as wkymvm)
CSCC[C@H](NC(=O)CNC(=O)[C@H](CCCCN)NC(=O)[C@@H](N)Cc1c[nH]c2ccccc12)C(=O)N[C@H](C(=O)N[C@H](CCSC)C(N)=O)C(C)C [WKGMVm-NH2, Trp-Lys-Gly-Met-Val-D-Met-NH2] (H-WKGMV[dM]-NH2; N-terminus assumed)	could not effect granule secretion	stimulated granule secretion	induced cellular chemotaxis	induced cellular chemotaxis showing concentration-dependency				
CSCC[C@H](NC(=O)[C@H](CCCNC(=N)N)NC(=O)[C@H](CCCCN)NC(=O)[C@@H](N)Cc1c[nH]c2ccccc12)C(=O)N[C@H](C(=O)N[C@H](CCSC)C(N)=O)C(C)C [WKRMVm-NH2, Trp-Lys-Arg-Met-Val-D-Met-NH2] (H-WKRMV[dM]-NH2; N-terminus assumed)	could not effect granule secretion	stimulated granule secretion	induced cellular chemotaxis	induced cellular chemotaxis showing concentration-dependency				
CSCC[C@H](NC(=O)[C@H](Cc1ccc(O)cc1)NC(=O)[C@H](CCCCN)NC(=O)[C@@H](N)Cc1c[nH]c2ccccc12)C(=O)N[C@H](C(=O)N[C@H](CCSC)C(N)=O)C(C)C [WKYMVm-NH2, Trp-Lys-Tyr-Met-Val-D-Met-NH2, reference compound]	caused β-hexosaminidase release in a concentration-dependent manner		induced cellular chemotaxis	induced cellular chemotaxis showing concentration-dependency	100 nM	10 nM	caused β-hexosaminidase release in a concentration-dependent manner; also recorded: stimulated granule secretion	but not fMLF or wkymvm, stimulated granule secretion
WKYMVE-NH2 [WKYMVE-NH2, Trp-Lys-Tyr-Met-Val-Glu-NH2]		stimulated granule secretion	induced cellular chemotaxis	induced cellular chemotaxis showing concentration-dependency				
WKYMVR-NH2 [WKYMVR-NH2, Trp-Lys-Tyr-Met-Val-Arg-NH2]		stimulated granule secretion	induced cellular chemotaxis	induced cellular chemotaxis showing concentration-dependency				
